Assay results reported in US10906889B2, “Polycyclic inhibitors of cyclin-dependent kinase 7 (CDK7)” (Dana-Farber Cancer Institute, Inc., priority 2013, dated 2021).
Like-named read-outs stand apart in the source and are kept apart here. Values belong to the compound of their own block, whether it stands above or below them.

Experiments:
Jurkat cells = assay: Cell proliferation (CellTiter-Glo, 72 hour), Jurkat; format: cell-based; conditions: Homo sapiens, blood cancer cell line
CDK7 = target: T1, CDK7 (Homo sapiens, UniProt P50613); assay: Adapta kinase assay (Life Technologies), CDK7; format: biochemical
T1 construct: purchased Life Technologies (assay service)

143B = assay: Cell proliferation (CellTiter-Glo, 72 hour), 143B; format: cell-based; conditions: Homo sapiens, osteosarcoma cell line, read-out: 143B inhibition of proliferation (IC50)
A673 = assay: Cell proliferation (CellTiter-Glo, 72 hour), A673; format: cell-based; conditions: Homo sapiens, Ewing's sarcoma cell line, read-out: A673 inhibition of proliferation (IC50)
SAOS = assay: Cell proliferation (CellTiter-Glo, 72 hour), SAOS; format: cell-based; conditions: osteosarcoma cell line, read-out: SAOS inhibition of proliferation (IC50)
MCF7 = assay: Cell proliferation (CellTiter-Glo, 72 hour), MCF7; format: cell-based; conditions: Homo sapiens, breast cancer cell line, read-out: MCF7 inhibition of proliferation (IC50)
MNNG-HOS Cl #5 = assay: Cell proliferation (CellTiter-Glo, 72 hour), MNNG-HOS Cl #5; format: cell-based; conditions: osteosarcoma cell line, read-out: MNNG-HOS Cl#5 inhibition of proliferation (IC50)
MCF10A = assay: Cell proliferation (CellTiter-Glo, 72 hour), MCF10A; format: cell-based; conditions: Homo sapiens, MCF-10A, breast cancer cell lines table, read-out: MCF10A inhibition of proliferation (IC50)
Hs863T = assay: Cell proliferation (CellTiter-Glo, 72 hour), Hs863T; format: cell-based; conditions: Ewing's sarcoma cell line, read-out: Hs863T inhibition of proliferation (IC50)
T47D = assay: Cell proliferation (CellTiter-Glo, 72 hour), T47D; format: cell-based; conditions: Homo sapiens, breast cancer cell line, read-out: T47D inhibition of proliferation (IC50)
Hs822T = assay: Cell proliferation (CellTiter-Glo, 72 hour), Hs822T; format: cell-based; conditions: Ewing's sarcoma cell line, read-out: Hs822T inhibition of proliferation (IC50)
SK-ES-1 = assay: Cell proliferation (CellTiter-Glo, 72 hour), SK-ES-1; format: cell-based; conditions: Homo sapiens, SK-ES1, Ewing's sarcoma cell line, read-out: SK-ES-1 inhibition of proliferation (IC50)
RS4-11 = assay: Cell proliferation (CellTiter-Glo, 72 hour), RS4-11; format: cell-based; conditions: Homo sapiens, blood cancer cell line, read-out: RS4-11 inhibition of proliferation (IC50)
MDA-MB231 = assay: Cell proliferation (CellTiter-Glo, 72 hour), MDA-MB231; format: cell-based; conditions: Homo sapiens, MDA-MB-231, breast cancer cell line, read-out: MDA-MB231 inhibition of proliferation (IC50)
RD-ES = assay: Cell proliferation (CellTiter-Glo, 72 hour), RD-ES; format: cell-based; conditions: Ewing's sarcoma cell line, read-out: RD-ES inhibition of proliferation (IC50)
SKBR3 = assay: Cell proliferation (CellTiter-Glo, 72 hour), SKBR3; format: cell-based; conditions: Homo sapiens, SK-BR-3, breast cancer cell line, read-out: SKBR3 inhibition of proliferation (IC50)
HL60 = assay: Cell proliferation (CellTiter-Glo, 72 hour), HL60; format: cell-based; conditions: Homo sapiens, HL-60, blood cancer cell line, read-out: HL60 inhibition of proliferation (IC50)
MV4-11 = assay: Cell proliferation (CellTiter-Glo, 72 hour), MV4-11; format: cell-based; conditions: Homo sapiens, blood cancer cell line, read-out: MV4-11 inhibition of proliferation (IC50)
hTERT-HME1 = assay: Cell proliferation (CellTiter-Glo, 72 hour), hTERT-HME1; format: cell-based; conditions: breast cancer cell lines table, read-out: hTERT-HME1 inhibition of proliferation (IC50)
THP-1 = assay: Cell proliferation (CellTiter-Glo, 72 hour), THP-1; format: cell-based; conditions: Homo sapiens, blood cancer cell line, read-out: THP-1 inhibition of proliferation (IC50)
MLK3 = target: T2, MLK3 (Homo sapiens, UniProt Q16584); assay: LanthaScreen Eu kinase assay (Life Technologies), MLK3; format: binding; conditions: Table 2; read-out: MLK3 (calculated IC50)
T2 construct: purchased Life Technologies (assay service)

CDK5/p25 = CDK5/p25 (Homo sapiens, UniProt Q00535); assay: Z'-Lyte kinase assay (Life Technologies), CDK5/p25
[1] = Table 1C, co-factors cyclin H and MNAT1, read-out: CDK7 IC50
[2] = Table 2, co-factors cyclin H and MNAT1, read-out: CDK7 (calculated IC50)

T1 sequence (P50613 whole entry): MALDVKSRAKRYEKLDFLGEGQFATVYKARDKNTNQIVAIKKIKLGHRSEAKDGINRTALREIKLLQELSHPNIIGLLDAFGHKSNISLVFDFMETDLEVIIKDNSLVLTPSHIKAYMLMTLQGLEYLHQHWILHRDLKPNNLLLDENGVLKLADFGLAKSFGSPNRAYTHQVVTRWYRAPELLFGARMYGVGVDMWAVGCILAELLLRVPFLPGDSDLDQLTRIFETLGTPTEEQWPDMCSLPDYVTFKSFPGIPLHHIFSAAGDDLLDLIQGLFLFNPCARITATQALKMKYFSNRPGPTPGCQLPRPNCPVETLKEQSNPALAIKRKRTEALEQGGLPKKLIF
T1 sequence (P51946 whole entry partner): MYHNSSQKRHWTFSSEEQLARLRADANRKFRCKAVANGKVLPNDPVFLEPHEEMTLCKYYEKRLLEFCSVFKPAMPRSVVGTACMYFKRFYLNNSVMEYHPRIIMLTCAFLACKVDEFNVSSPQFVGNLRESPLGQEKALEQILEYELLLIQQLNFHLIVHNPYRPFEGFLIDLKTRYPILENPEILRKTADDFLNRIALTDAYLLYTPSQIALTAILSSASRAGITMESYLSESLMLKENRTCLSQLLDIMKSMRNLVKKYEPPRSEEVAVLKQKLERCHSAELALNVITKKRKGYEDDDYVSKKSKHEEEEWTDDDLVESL
T1 sequence (P51948 whole entry partner): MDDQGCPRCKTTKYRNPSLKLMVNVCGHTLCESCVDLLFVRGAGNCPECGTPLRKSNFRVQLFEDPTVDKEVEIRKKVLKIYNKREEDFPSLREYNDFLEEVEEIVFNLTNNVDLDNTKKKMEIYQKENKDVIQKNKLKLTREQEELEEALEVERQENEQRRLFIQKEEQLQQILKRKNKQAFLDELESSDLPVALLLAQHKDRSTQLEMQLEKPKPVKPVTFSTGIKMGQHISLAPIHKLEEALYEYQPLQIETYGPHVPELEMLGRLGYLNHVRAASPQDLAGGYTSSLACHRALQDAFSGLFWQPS
T2 sequence (Q16584 whole entry): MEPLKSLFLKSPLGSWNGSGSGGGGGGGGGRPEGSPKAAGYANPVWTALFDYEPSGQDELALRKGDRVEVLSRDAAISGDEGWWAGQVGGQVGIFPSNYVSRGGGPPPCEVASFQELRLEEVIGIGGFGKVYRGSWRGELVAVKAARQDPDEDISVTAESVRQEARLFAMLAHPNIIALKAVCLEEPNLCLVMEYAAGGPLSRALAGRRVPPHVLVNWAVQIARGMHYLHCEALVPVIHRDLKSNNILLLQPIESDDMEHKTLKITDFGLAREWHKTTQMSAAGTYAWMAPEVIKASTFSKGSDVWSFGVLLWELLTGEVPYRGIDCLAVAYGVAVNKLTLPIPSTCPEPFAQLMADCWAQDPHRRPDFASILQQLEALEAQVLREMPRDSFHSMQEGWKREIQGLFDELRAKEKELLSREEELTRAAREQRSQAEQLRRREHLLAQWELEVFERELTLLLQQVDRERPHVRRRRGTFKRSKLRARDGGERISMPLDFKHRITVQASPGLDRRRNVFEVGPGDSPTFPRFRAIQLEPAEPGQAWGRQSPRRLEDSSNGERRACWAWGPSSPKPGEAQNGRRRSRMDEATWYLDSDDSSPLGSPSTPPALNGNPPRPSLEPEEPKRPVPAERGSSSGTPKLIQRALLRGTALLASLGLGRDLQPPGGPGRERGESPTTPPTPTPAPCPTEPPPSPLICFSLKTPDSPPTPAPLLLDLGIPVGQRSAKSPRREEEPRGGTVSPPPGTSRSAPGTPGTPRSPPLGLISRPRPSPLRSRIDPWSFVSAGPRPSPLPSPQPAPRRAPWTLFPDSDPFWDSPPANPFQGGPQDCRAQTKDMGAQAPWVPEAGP
Sequence of CDK5/p25 (Q00535 whole entry): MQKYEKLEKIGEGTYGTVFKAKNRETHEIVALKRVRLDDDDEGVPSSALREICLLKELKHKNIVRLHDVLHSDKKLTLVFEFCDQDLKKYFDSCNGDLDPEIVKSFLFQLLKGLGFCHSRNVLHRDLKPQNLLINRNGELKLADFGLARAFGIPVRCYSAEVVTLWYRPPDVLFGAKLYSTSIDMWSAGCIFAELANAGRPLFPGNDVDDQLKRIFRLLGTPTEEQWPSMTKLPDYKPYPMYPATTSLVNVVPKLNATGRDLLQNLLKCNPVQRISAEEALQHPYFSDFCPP
Sequence of CDK5/p25 (Q15078 99-307 partner limits assumed): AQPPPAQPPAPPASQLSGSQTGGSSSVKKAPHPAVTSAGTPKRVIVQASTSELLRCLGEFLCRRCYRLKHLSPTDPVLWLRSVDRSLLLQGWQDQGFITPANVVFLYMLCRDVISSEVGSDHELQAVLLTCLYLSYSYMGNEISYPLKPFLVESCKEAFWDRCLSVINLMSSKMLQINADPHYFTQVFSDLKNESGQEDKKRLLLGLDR

IC50 (Jurkat cells): < 0.5 µM
IC50 (CDK7; [1]): < 0.1 µM
SMILES: CN(C)C/C=C/C(=O)Nc1ccc(CN[C@H]2CCC[C@@H](Nc3ncc(Cl)c(-c4c[nH]c5ccccc45)n3)C2)cc1 [Compound 129, (E)-N-(4-(((1S,3R)-3-(5-chloro-4-(1H-indol-3-yl)pyrimidin-2-ylamino)cyclohexylamino)methyl)phenyl)-4-(dimethylamino)but-2-enamide]

IC50 (Jurkat cells): < 0.5 µM
IC50 (CDK7; [1]): < 0.1 µM
SMILES: C[Si](C)(C)C#CC(=O)Nc1ccc(C(=O)NC23CCCC(Nc4ncc(Cl)c(-c5c[nH]c6ccccc56)n4)(C2)C3)cc1 [Compound 130, N-(5-(5-chloro-4-(1H-indol-3-yl)pyrimidin-2-ylamino)bicyclo[3.1.1]heptan-1-yl)-4-(3-(trimethylsilyl)propiolamido)benzamide]

IC50 (Jurkat cells): < 0.5 µM
IC50 (CDK7; [1]): < 0.1 µM
SMILES: CN(C/C=C/C(=O)Nc1ccc(C(=O)N[C@H]2CCC[C@@H](Nc3ncc(Cl)c(-c4c[nH]c5ccccc45)n3)C2)cc1)CC(=O)O [Compound 131, 2-(((E)-4-(4-((1S,3R)-3-(5-chloro-4-(1H-indol-3-yl)pyrimidin-2-ylamino)cyclohexylcarbamoyl)phenylamino)-4-oxobut-2-enyl)(methyl)amino)acetic acid]

IC50 (Jurkat cells): < 0.5 µM
IC50 (CDK7; [1]): 0.1 to 1 µM
SMILES: C=CC(=O)Nc1ccc(C(=O)N[C@H]2CCC[C@@H](Nc3ncc(Cl)c(-c4c[nH]c5ccccc45)n3)C2)c(N2CCOCC2)c1 [Compound 133, 4-acrylamido-N-((1S,3R)-3-(5-chloro-4-(1H-indol-3-yl)pyrimidin-2-ylamino)cyclohexyl)-2-morpholinobenzamide]

IC50 (Jurkat cells): < 0.5 µM
IC50 (CDK7; [1]): < 0.1 µM
SMILES: C=CC(=O)Nc1cccc(C(=O)N[C@H]2CC[C@H](Nc3ncc(Cl)c(-c4c[nH]c5ccccc45)n3)CC2)c1 [Compound 135, 3-acrylamido-N-((trans)-4-(5-chloro-4-(1H-indol-3-yl)pyrimidin-2-ylamino)cyclohexyl)benzamide]

IC50 (Jurkat cells): < 0.5 µM
IC50 (CDK7; [1]): 0.1 to 1 µM
SMILES: C=CC(=O)Nc1ccc(C(=O)N[C@H]2CCC[C@@H](Nc3ncc(F)c(-c4c[nH]c5ccccc45)n3)C2)cc1 [Compound 137, 4-acrylamido-N-((1S,3R)-3-(5-fluoro-4-(1H-indol-3-yl)pyrimidin-2-ylamino)cyclohexyl)benzamide]

IC50 (Jurkat cells): < 0.5 µM
IC50 (CDK7; [1]): < 0.1 µM
SMILES: C=CC(=O)Nc1ccc(C(=O)N[C@H]2CCC[C@@H](Nc3ncc(Cl)c(-c4cnn5ccccc45)n3)C2)cc1 [Compound 138, 4-acrylamido-N-((1S,3R)-3-(5-chloro-4-(pyrazolo[1,5-a]pyridin-3-yl)pyrimidin-2-ylamino)cyclohexyl)benzamide]

IC50 (Jurkat cells): 0.5 to 5 µM
IC50 (CDK7; [1]): > 1 µM
SMILES: CN(C)C/C=C/C(=O)Nc1ccc(C(=O)N[C@H]2C[C@@H](Nc3ncc(Cl)c(-c4c[nH]c5ccccc45)n3)CC(F)(F)C2)cc1 [Compound 139]

IC50 (Jurkat cells): < 0.5 µM
IC50 (CDK7; [1]): < 0.1 µM
SMILES: Cc1nc(C)c(-c2nc(NC3CCCC(NC(=O)c4ccc(NC(=O)/C=C/CN(C)C)cc4)C3)ncc2Cl)s1 (stereo not shown) [Compound 141]

IC50 (Jurkat cells): < 0.5 µM
IC50 (CDK7; [1]): 0.1 to 1 µM
SMILES: C=CC(=O)Nc1ccc(C(=O)NC2CCCC(Nc3ncc(Cl)c(-c4sc(C)nc4C)n3)C2)cc1 (stereo not shown) [Compound 142]

IC50 (Jurkat cells): < 0.5 µM
IC50 (CDK7; [1]): 0.1 to 1 µM
SMILES: Cc1noc(C)c1-c1nc(N[C@@H]2CCC[C@H](NC(=O)c3ccc(NC(=O)/C=C/CN(C)C)cc3)C2)ncc1Cl [Compound 144]

IC50 (Jurkat cells): < 0.5 µM
IC50 (CDK7; [1]): < 1 µM
SMILES: C=CC(=O)Nc1ccc(C(=O)N[C@H]2CCC[C@@H](Nc3ncc(Cl)c(-c4c(C)noc4C)n3)C2)cc1 [Compound 145]

IC50 (Jurkat cells): 0.5 to 5 µM
IC50 (CDK7; [1]): 0.1 to 1 µM
SMILES: C=CC(=O)Nc1ccc(C(=O)N[C@H]2CCC[C@@H](Nc3ncc(C4CC4)c(-c4c[nH]c5ccccc45)n3)C2)cc1 [Compound 146]

IC50 (Jurkat cells): < 0.5 µM
IC50 (CDK7; [1]): < 1 µM
SMILES: C=CC(=O)Nc1ccc(C(=O)N[C@H]2CC[C@@H](Nc3ncc(Cl)c(-c4c[nH]c5ccccc45)n3)CC2)cc1 [Compound 147]

IC50 (Jurkat cells): < 0.5 µM
IC50 (CDK7; [1]): 0.1 to 1 µM
SMILES: C=CC(=O)Nc1ccc(C(=O)N[C@H]2CCC[C@@H](Nc3ncc(Cl)c(-c4cn(C)c5ccccc45)n3)C2)cc1 [Compound 152]

IC50 (MCF7): 0.5 to 5 µM
IC50 (T47D): > 5 µM
IC50 (SK-ES-1): < 0.5 µM
IC50 (RS4-11): < 0.5 µM
IC50 (MDA-MB231): < 0.5 µM
IC50 (SKBR3): < 0.5 µM
IC50 (HL60): < 0.5 µM
IC50 (MV4-11): < 0.5 µM
IC50 (THP-1): < 0.5 µM
SMILES: CN1CC[C@H](c2c(O)cc(O)c3c(=O)cc(-c4ccccc4Cl)oc23)[C@H](O)C1 [Flavopiridol, flavopiridol, reference compound]
IC50 (143B): 0.5 to 5 µM
IC50 (A673): < 0.5 µM
IC50 (SAOS): < 0.5 µM
IC50 (MNNG-HOS Cl #5): 0.5 to 5 µM
IC50 (MCF10A): < 0.5 µM
IC50 (Hs863T): > 5 µM
IC50 (Hs822T): > 5 µM
IC50 (RD-ES): < 0.5 µM
IC50 (hTERT-HME1): < 0.5 µM

SMILES: CC(C)[C@]12O[C@H]1[C@@H]1O[C@]13[C@]1(O[C@H]1C[C@H]1C4=C(CC[C@@]13C)C(=O)OC4)[C@@H]2O [Triptolide, triptolide, reference compound]
IC50 (143B): < 0.5 µM
IC50 (A673): < 0.5 µM
IC50 (SAOS): < 0.5 µM
IC50 (MCF7): < 0.5 µM
IC50 (MNNG-HOS Cl #5): < 0.5 µM
IC50 (MCF10A): < 0.5 µM
IC50 (Hs863T): > 5 µM
IC50 (T47D): > 5 µM
IC50 (Hs822T): 0.5 to 5 µM
IC50 (SK-ES-1): < 0.5 µM
IC50 (RS4-11): < 0.5 µM
IC50 (MDA-MB231): < 0.5 µM
IC50 (RD-ES): < 0.5 µM
IC50 (SKBR3): < 0.5 µM
IC50 (HL60): < 0.5 µM
IC50 (MV4-11): < 0.5 µM
IC50 (hTERT-HME1): < 0.5 µM
IC50 (THP-1): < 0.5 µM

IC50 (MLK3): > 1 µM
IC50 (Jurkat cells): 0.5 to 5 µM
IC50 (CDK7; [1]): 0.1 to 1 µM
IC50 (CDK7; [2]): 0.1 to 1 µM
IC50 (CDK5/p25): > 1 µM
SMILES: CN(C)C/C=C/C(=O)Nc1ccc(C(=O)N[C@@H]2CCC[C@H](Nc3ncc(Cl)c(-c4c[nH]c5ccccc45)n3)C2)cc1 [compound 101]

IC50 (MLK3): > 1 µM
IC50 (Jurkat cells): < 0.5 µM
IC50 (CDK7; [1]): < 0.1 µM
IC50 (CDK7; [2]): < 0.1 µM
IC50 (CDK5/p25): > 1 µM
SMILES: CN(C)C/C=C/C(=O)Nc1ccc(C(=O)N[C@@H]2CCC[C@@H](Nc3ncc(Cl)c(-c4c[nH]c5ccccc45)n3)C2)cc1 [compound 104]

IC50 (Jurkat cells): < 0.5 µM
IC50 (CDK7; [1]): < 0.1 µM
SMILES: CN(C)C/C=C/C(=O)Nc1ccc(C(=O)NC2CCCC(Nc3ncc(Cl)c(-c4c[nH]c5ccccc45)n3)C2)c(F)c1 (stereo not shown) [compound 125]

IC50 (Jurkat cells): < 0.5 µM
IC50 (CDK7; [1]): < 0.1 µM
SMILES: CN(C)C/C=C/C(=O)Nc1ccc(C(=O)NC2(C)CCCC(Nc3ncc(Cl)c(-c4c[nH]c5ccccc45)n3)C2)cc1 (stereo not shown) [compound 128]

IC50 (Jurkat cells): < 0.5 µM
IC50 (CDK7; [1]): < 0.1 µM
SMILES: CN(C)C/C=C/C(=O)Nc1cccc(C(=O)NC2CCC(Nc3ncc(Cl)c(-c4c[nH]c5ccccc45)n3)CC2)c1 (stereo not shown) [compound 140]
